Where two headings read alike, the source gives them in different places.
Molecular target: T1, CYP3A4 (Homo sapiens, UniProt P08684)
T1 construct: using human liver microsomes (pool from various individuals); from tissue; host or cells: human liver microsomes (pool from various individuals)
Assay: CYP inhibition assay with human liver microsomes
Type: in vitro ADME
Method in brief: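 Pooled human liver microsomes (23-233 μg/mL) incubated 15-20 min at 37° C, pH 7.4 phosphate with NADP+/G6P regenerating system, isoform-specific substrate and six test compound concentrations (top 50 or 20 μM). Metabolites quantified by LC-MS/MS; IC50 versus uninhibited formation. CYP3A4 mechanism-based check: 30 min preincubation before midazolam or testosterone.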

[1] = 30 min preincubation with test compound before substrate, read-out: CYP 3A4 Preincubation, 30 min.
[2] = without preincubation, read-out: CYP 3A4 Coincubation

T1 sequence (P08684 whole entry): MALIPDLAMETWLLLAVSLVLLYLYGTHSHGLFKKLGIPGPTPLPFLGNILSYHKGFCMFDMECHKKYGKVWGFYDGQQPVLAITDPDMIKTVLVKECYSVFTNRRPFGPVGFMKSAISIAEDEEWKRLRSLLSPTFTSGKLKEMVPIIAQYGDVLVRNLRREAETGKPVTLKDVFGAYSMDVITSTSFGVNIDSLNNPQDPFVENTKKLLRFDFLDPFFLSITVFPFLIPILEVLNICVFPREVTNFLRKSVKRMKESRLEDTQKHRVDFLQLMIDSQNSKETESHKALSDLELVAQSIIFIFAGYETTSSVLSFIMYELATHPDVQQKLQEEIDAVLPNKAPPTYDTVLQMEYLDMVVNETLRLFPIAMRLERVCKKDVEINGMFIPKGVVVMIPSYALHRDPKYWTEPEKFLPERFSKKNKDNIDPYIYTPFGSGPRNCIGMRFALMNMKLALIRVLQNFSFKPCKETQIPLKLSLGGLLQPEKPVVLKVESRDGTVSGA

SMILES: CS(=O)(=O)Cc1cc(F)cc2c(C(c3ccc(C(F)(F)F)cc3F)C3CC3C#N)c[nH]c12 (single isomer, unassigned) [Example 271-1-1, 2-({5-Fluoro-7-[(methylsulfonyl)methyl]-1H-indol-3-yl}[2-fluoro-4-(trifluoro-methyl)phenyl]methyl)cyclopropanecarbonitrile]
- IC50 [1]: 25.6 µM
- IC50 [2]: > 40 µM

SMILES: CS(=O)(=O)Cc1cccc2c(C(CCC#N)c3ccc4sccc4c3)c[nH]c12 (centres unmarked) [Example 73, 4-(1-Benzothiophen-5-yl)-4-{7-[(methylsulfonyl)methyl]-1H-indol-3-yl}butanonitrile]
- IC50 [1]: 16.6 µM
- IC50 [2]: > 20 µM

SMILES: CS(=O)(=O)Cc1cccc2c(C(CCC#N)c3ccc4c(c3)OC(F)(F)O4)c[nH]c12 (centres unmarked) [Example 169, 4-(2,2-Difluoro-1,3-benzodioxol-5-yl)-4-{7-[(methylsulfonyl)methyl]-1H-indol-3-yl}butanonitrile]
- IC50 [1]: 17 µM
- IC50 [2]: > 20 µM

SMILES: CS(=O)(=O)Cc1cc(F)cc2c(C(c3ccc(Cl)cc3F)C3CC3C#N)c[nH]c12 (single isomer, unassigned) [Example 273-1-2, 2-[(4-Chloro-2-fluorophenyl){5-fluoro-7-[(methylsulfonyl)methyl]-1H-indol-3-yl}methyl]cyclopropanecarbonitrile]
- IC50 [1]: 13.7 µM
- IC50 [2]: > 20 µM

SMILES: CS(=O)(=O)Cc1cccc2c(C3(C4CC4)CCc4cc(F)ccc43)c[nH]c12 (centres unmarked) [Example 107, 3-(1-Cyclopropyl-5-fluoro-2,3-dihydro-1H-inden-1-yl)-7-[(methylsulfonyl)methyl]-1H-indole]
- IC50 [1]: 12.9 µM
- IC50 [2]: > 20 µM

SMILES: CS(=O)(=O)Cc1cccc2c(C(c3ccc(F)cc3)c3ccc(C(F)(F)F)cc3)c[nH]c12 (centres unmarked) [Example 113, 3-{(4-Fluorophenyl) [4-(trifluoromethyl)phenyl]methyl}-7-[(methylsulfonyl)methyl]-1H-indole]
- IC50 [1]: > 20 µM
- IC50 [2]: > 20 µM

SMILES: CS(=O)(=O)Cc1cccc2c(C(c3ccc(Cl)cc3)C3CC3(F)F)c[nH]c12 (single isomer, unassigned) [Example 261-1, 3-[(4-Chlorophenyl)(2,2-difluorocyclopropyl)methyl]-7-[(methylsulfonyl)methyl]-1H-indole]
- IC50 [1]: 19 µM
- IC50 [2]: > 20 µM

SMILES: CCC(CCC#N)(c1ccc(Cl)cc1)c1c[nH]c2c(CS(C)(=O)=O)cccc12 (centres unmarked) [Example 172, 4-(4-Chlorophenyl)-4-{7-[(methylsulfonyl)methyl]-1H-indol-3-yl}hexanonitrile]
- IC50 [1]: 9.6 µM
- IC50 [2]: > 20 µM

SMILES: CS(=O)(=O)Cc1cccc2c(C(CCC#N)c3ccc(Cl)cc3F)c[nH]c12 (single isomer, unassigned) [Example 59-1, 4-(4-Chloro-2-fluorophenyl)-4-{7-[(methylsulfonyl)methyl]-1H-indol-3-yl}butanonitrile]
- IC50 [1]: 13.1 µM
- IC50 [2]: > 20 µM

SMILES: CCC(CCO)(c1ccc(Cl)cc1)c1c[nH]c2c(CS(C)(=O)=O)cccc12 (centres unmarked) [Example 147, 3-(4-Chlorophenyl)-3-{7-[(methylsulfonyl)methyl]-1H-indol-3-yl}pentan-1-ol]
- IC50 [1]: 8.8 µM
- IC50 [2]: > 20 µM

From patent publication US20110201564A1, “SUBSTITUTED 7-SULFANYLMETHYL, 7-SULFINYLMETHYL AND 7-SULFONYLMETHYL INDOLES AND USE THEREOF” (BAYER SCHERING PHARMA AKTIENGESELLSCHAFT, priority 2008, published 2011)
